Results taken from patent publication US12325697B2 (Nimbus Clio, Inc., priority 2021, dated 2025).

Legend:
[1] = test system: Jurkat (clone E6-1) cells, NFAT luciferase reporter; assay: Jurkat Reporter Assay (NFAT Luciferase); type: cell-based; conditions: Homo sapiens, anti-CD3 stimulation, 6 hr, read-out: Jurkat NFAT EC50
[2] = target: Recombinant human Cbl-b (aa 36-427) (Homo sapiens (Human), UniProt Q13191); assay: Cbl-b Biochemical Assay (TR-FRET); conditions: read-out: TR-FRET hCbl-b IC50
Chain of Recombinant human Cbl-b (aa 36-427) (Q13191 36-427): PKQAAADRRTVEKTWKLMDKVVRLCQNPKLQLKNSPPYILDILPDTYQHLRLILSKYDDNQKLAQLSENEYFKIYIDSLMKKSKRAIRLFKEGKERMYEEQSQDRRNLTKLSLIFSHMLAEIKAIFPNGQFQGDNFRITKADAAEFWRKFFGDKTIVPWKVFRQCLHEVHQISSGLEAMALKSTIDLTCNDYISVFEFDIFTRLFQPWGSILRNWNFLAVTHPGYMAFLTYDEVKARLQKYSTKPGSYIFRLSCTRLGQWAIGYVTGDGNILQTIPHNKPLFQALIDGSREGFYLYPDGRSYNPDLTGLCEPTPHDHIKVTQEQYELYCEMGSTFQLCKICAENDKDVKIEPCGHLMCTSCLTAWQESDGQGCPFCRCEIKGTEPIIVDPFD
Procedure, shortened: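 Two-step TR-FRET: 6 nM biotinylated Cbl-b preincubated 30-60 min with compound, then 60 min at RT with 1-2.5 nM Src-Zap70 and 0.5 mM ATP in HEPES pH 7.0 buffer, 1% DMSO. Stopped with 5 mM EDTA plus 100 nM UBE2D2-Ub-FL-BODIPY and 1 nM streptavidin-Tb, 60 min; 520 nm signal; IC50 from 4-parameter fit.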

[3] = test system: Phospho-Zap70 (Y-319) in Jurkat wild-type (clone E6-1) cells; assay: Jurkat pZAP70 HTRF Assay; type: cell-based; conditions: Homo sapiens, anti-CD3 5 μg/ml, 3 hr, read-out: ZAP70 Jurkat EC50

## CCNc1cc(-c2c(-c3nncn3C)cnn2C)cc(N2Cc3c(cc(CN[C@@H]4CCC[C@@H]4O)cc3C(F)(F)F)C2=O)n1 [ADF-2, 2-[6-(Ethylamino)-4-[2-methyl-4-(4-methyl-1,2,4-triazol-3-yl)pyrazol-3-yl]pyridin-2-yl]-6-({[(1R,2S)-2-hydroxycyclopentyl]amino}methyl)-4-(trifluoromethyl)-3H-isoindol-1-one]
[1]
  EC50: < 0.2 µM
[2]
  IC50: ≤ 0.2 µM
[3]
  EC50: < 0.2 µM

## Cn1cnnc1-c1ccccc1-c1cccc(N2Cc3c(cc(CNCC4(O)CCC4)cc3C(F)(F)F)C2=O)c1 [AW-2, 6-((((1-Hydroxycyclobutyl)methyl)amino)methyl)-2-(2′-(4-methyl-4H-1,2,4-triazol-3-yl)-[1,1′-biphenyl]-3-yl)-4-(trifluoromethyl)isoindolin-1-one]
[1]
  EC50: < 0.2 µM
[2]
  IC50: ≤ 0.2 µM
[3]
  EC50: < 0.2 µM

## CCNc1cc(-c2c(-c3nncn3C)cnn2C)cc(N2Cc3c(cc(COCC4(O)CCC4)cc3C(F)(F)F)C2=O)n1 [AED-2, 2-[6-(Ethylamino)-4-[2-methyl-4-(4-methyl-1,2,4-triazol-3-yl)pyrazol-3-yl]pyridin-2-yl]-6-{[(1-hydroxycyclobutyl)methoxy]methyl}-4-(trifluoromethyl)-3H-isoindol-1-one]
[1]
  EC50: < 0.2 µM
[2]
  IC50: ≤ 0.2 µM
[3]
  EC50: 0.2 to 1 µM

## CCNc1cc(-c2c(-c3nncn3C)cnn2C)cc(N2Cc3c(cc(CN(C)CC4(O)CCC4)cc3C(F)(F)F)C2=O)n1 [AEJ-3, 2-(6-(Ethylamino)-4-(1-methyl-4-(4-methyl-4H-1,2,4-triazol-3-yl)-1H-pyrazol-5-yl)pyridin-2-yl)-6-((((1-hydroxycyclobutyl)methyl)(methyl)amino)methyl)-4-(trifluoromethyl)isoindolin-1-one]
[1]
  EC50: < 0.2 µM
[2]
  IC50: ≤ 0.2 µM
[3]
  EC50: < 0.2 µM

## CCOc1cc(-c2ccc(C#N)cc2-c2nncn2C)cc(N2Cc3c(cc(CO)cc3C(F)(F)F)C2=O)n1 [AEW-2, 4-{2-Ethoxy-6-[6-(hydroxymethyl)-1-oxo-4-(trifluoromethyl)-3H-isoindol-2-yl]pyridin-4-yl}-3-(4-methyl-1,2,4-triazol-3-yl)benzonitrile]
[1]
  EC50: < 0.2 µM
[2]
  IC50: ≤ 0.2 µM
[3]
  EC50: 0.2 to 1 µM

## COc1cc2c(cc1CNCC1(O)CCC1)C(=O)N(c1cc(-c3ccccc3-c3nncn3C)cc(C3CC3)n1)C2 [AEM-9, 2-(6-Cyclopropyl-4-(2-(4-methyl-4H-1,2,4-triazol-3-yl)phenyl)pyridin-2-yl)-6-((((1-hydroxycyclobutyl)methyl)amino)methyl)-5-methoxyisoindolin-1-one]
[1]
  EC50: < 0.2 µM
[2]
  IC50: ≤ 0.2 µM
[3]
  EC50: < 0.2 µM

## C[C@@H](NCC1(O)CCC1)c1cc2c(c(C(F)(F)F)c1)CN(c1cc(-c3ccccc3-c3nncn3C)cc(C3CC3)n1)C2=O (single isomer, unassigned) [AFU-1]
[1]
  EC50: < 0.2 µM
[2]
  IC50: ≤ 0.2 µM
[3]
  EC50: < 0.2 µM

## CCNc1cc(-c2ccc(C#N)cc2-c2nncn2C)cc(N2Cc3c(cc(COCC4(N)CCC4)cc3C(F)(F)F)C2=O)n1 [AGJ-2, 4-[2-(6-{[(1-aminocyclobutyl)methoxy]methyl}-1-oxo-4-(trifluoromethyl)-3H-isoindol-2-yl)-6-(ethylamino)pyridin-4-yl]-3-(4-methyl-1,2,4-triazol-3-yl)benzonitrile]
[1]
  EC50: < 0.2 µM
[2]
  IC50: ≤ 0.2 µM
[3]
  EC50: 1 to 10 µM

## Cn1cnnc1-c1ccccc1-c1cccc(N2Cc3c(cc(CNCC(C)(C)O)cc3C(F)(F)F)C2=O)c1 [AZ-2, 6-(((2-Hydroxy-2-methylpropyl)amino)methyl)-2-(2′-(4-methyl-4H-1,2,4-triazol-3-yl)-[1,1′-biphenyl]-3-yl)-4-(trifluoromethyl)isoindolin-1-one]
[1]
  EC50: < 0.2 µM
[2]
  IC50: ≤ 0.2 µM
[3]
  EC50: < 0.2 µM

## CCOc1cc(-c2ccc(F)cc2-c2nncn2C)cc(N2Cc3ccc(CNCC4(O)CCC4)cc3C2=O)n1 [AGR-1, 2-{6-Ethoxy-4-[4-fluoro-2-(4-methyl-1,2,4-triazol-3-yl)phenyl]pyridin-2-yl}-6-({[(1-hydroxycyclobutyl)methyl]amino}methyl)-3H-isoindol-1-one]
[1]
  EC50: < 0.2 µM
[2]
  IC50: ≤ 0.2 µM
[3]
  EC50: < 0.2 µM

## CCNc1cc(-c2ccc(F)cc2-c2nncn2C)cc(N2Cc3c(cc(COCCO)cc3C(F)(F)F)C2=O)n1 [AGE-3, 2-[6-(Ethylamino)-4-[4-fluoro-2-(4-methyl-1,2,4-triazol-3-yl)phenyl]pyridin-2-yl]-6-[(2-hydroxyethoxy)methyl]-4-(trifluoromethyl)-3H-isoindol-1-one]
[1]
  EC50: < 0.2 µM
[2]
  IC50: ≤ 0.2 µM
[3]
  EC50: < 0.2 µM

## CCNc1cc(-c2ccc(F)cc2-c2nncn2C)cc(N2Cc3c(cc(CO)cc3C(F)(F)F)C2=O)n1 [AEF-1, 2-(6-(Ethylamino)-4-(4-fluoro-2-(4-methyl-4H-1,2,4-triazol-3-yl)phenyl)pyridin-2-yl)-6-(hydroxymethyl)-4-(trifluoromethyl)isoindolin-1-one]
[1]
  EC50: < 0.2 µM
[2]
  IC50: ≤ 0.2 µM
[3]
  EC50: < 0.2 µM

## Cn1cnnc1-c1cnn(C)c1-c1cc(C2CC2)nc(N2Cc3c(cc(CO[C@H]4CCC[C@H]4O)cc3C(F)(F)F)C2=O)c1 [AGA-1, 2-{6-Cyclopropyl-4-[2-methyl-4-(4-methyl-1,2,4-triazol-3-yl)pyrazol-3-yl]pyridin-2-yl}-6-({1[(1R,2S)-2-hydroxycyclopentyl]oxy}methyl)-4-(trifluoromethyl)-3H-isoindol-1-one]
[1]
  EC50: < 0.2 µM
[2]
  IC50: ≤ 0.2 µM
[3]
  EC50: 0.2 to 1 µM

## CCNc1cc(-c2ccc(F)cc2-c2nncn2C)cc(N2Cc3c(cc(CO[C@@H]4CCC[C@@H]4O)cc3C(F)(F)F)C2=O)n1 [AFZ-1, 2-[6-(Ethylamino)-4-[4-fluoro-2-(4-methyl-1,2,4-triazol-3-yl)phenyl]pyridin-2-yl]-6-({[(1R,2S)-2-hydroxycyclopentyl]oxy}methyl)-4-(trifluoromethyl)-3H-isoindol-1-one]
[1]
  EC50: < 0.2 µM
[2]
  IC50: ≤ 0.2 µM
[3]
  EC50: 0.2 to 1 µM

## CCNc1cc(-c2ccc(F)cc2-c2nncn2C)cc(N2Cc3c(cc(COCC4(O)CCC4)cc3C(F)(F)F)C2=O)n1 [AFF-2, 2-[6-(Ethylamino)-4-[4-fluoro-2-(4-methyl-1,2,4-triazol-3-yl)phenyl]pyridin-2-yl]-6-{1[(1-hydroxycyclobutyl)methoxy]methyl}-4-(trifluoromethyl)-3H-isoindol-1-one]
[1]
  EC50: < 0.2 µM
[2]
  IC50: ≤ 0.2 µM
[3]
  EC50: < 0.2 µM

## CCNc1cc(-c2ccc(C#N)cc2-c2nncn2C)cc(N2Cc3c(cc(COC4CC4)cc3C(F)(F)F)C2=O)n1 [AEV-3, 4-{2-[6-(Cyclopropoxymethyl)-1-oxo-4-(trifluoromethyl) -3H-isoindol-2-yl]-6-(ethylamino)pyridin-4-yl}-3-(4-methyl-1,2,4-triazol-3-yl) benzonitrile]
[1]
  EC50: < 0.2 µM
[2]
  IC50: ≤ 0.2 µM
[3]
  EC50: 1 to 10 µM

## CCNc1cc(-c2c(-c3nncn3C)cnn2C)cc(N2Cc3c(cc(CNCC4(OC)CCC4)cc3C(F)(F)F)C2=O)n1 [AEQ-3, 2-[6-(Ethylamino)-4-[2-methyl-4-(4-methyl-1,2,4-triazol-3-yl)pyrazol-3-yl]pyridin-2-yl]-6-({[(1-methoxycyclobutyl)methyl]amino}methyl)-4-(trifluoromethyl)-3H-isoindol-1-one]
[1]
  EC50: < 0.2 µM
[2]
  IC50: ≤ 0.2 µM
[3]
  EC50: < 0.2 µM
